Results published in US20030225230A1, “Polymers for antifouling coatings and a process for the preparation thereof” (Jotun A/S, priority 1995, published 2003).

Tests used:
[1] = Determination of the hydrolysis rate of monomers in alkaline environment (pH 12); assay type: physicochemical; conditions: monomer in aqueous solution, starting pH 12, 25 °C

Hydrolysis Rate after 24 h [1] [%]	melting point [°C]	Hydrolysis Rate (4.5 h) [1] [%]	Compound
35.6	52		C=C(C)C(=O)Oc1ccc(Br)cc1C=O [5-Bromo-2-methacryloyloxybenzaldehyde]
54.8			4-Methacryloyloxymethylbenzoate
32.9			C=C(C)C(=O)Oc1ccc(NC(C)=O)cc1 [4-Methacryloyloxy acetanilide]
	60	63.1	C=C(C)C(=O)OCC(=O)OC [Methoxycarbonylmethylmethacrylate]
43.2	40		C=C(C)C(=O)Oc1ccc(OC)cc1 [4-Methoxyphenylmethacrylate]
12.6	110		C=C(C)C(=O)Sc1nc(-c2ccccc2)ns1 [3-Phenyl-5-methacryloylthio-1,2,4-thiadiazole]
		64.4	2-Methacryloyloxymethylbenzoate
78.0			C=C(C)C(=O)Sc1ccc(Cl)cc1 [4-Chlorothlophenylmethacrylate]

Compound	Hydrolysis Rate after 24 h [1] [%]	melting point [°C]	Hydrolysis Rate (4.5 h) [1] [%]
C=C(C)C(=O)OCC(=O)OC(C)(C)C [t-Butoxycarbonylmethylmethacrylate]	77.6	65	
C=C(C)C(=O)OCC(=O)O [Methacryloytoxy acetic acid]	70.1		
Ethyloxythioglycolic acid methacrylate	80.2		
C=C(C)C(=O)Oc1c(Br)cc(Br)cc1Br [2,4,6-Tribromophenylmethacrylate]	13.3	140	
